Measured values taken from US7534892B2, “Sulfonamide compound” (Shionogi & Co., Ltd., priority 2004, dated 2009).
Like-named read-outs stand apart in the source and are kept apart here.

Test system: food intake of rats
Assay: Antifeeding activity: food intake after intracerebroventricular infusion of NPYY5 agonist
Format: in vivo
Details: Rattus norvegicus, compound 30 mg/kg oral, 0.1 nmol NPYY5 agonist infused one hour later
Protocol: A guide cannula was implanted in ventriculus lateralis of 7-week-old rats (200-300 g) reared in free-feeding. Then the rats reared in free-feeding about for 1 week.
A compound of the present invention was suspended in 0.5% HPMC solution (hydroxypropylmethylcellulose: 60SH-50, Shin-Etsu Chemical Co., Ltd.) to get a final concentration of 15 mg/ml.
Rats were given 2 mL/kg of a suspension of a compound of the present invention (the compound 30 mg/kg) by oral administration. On the other hand, rats in a control group were given the same amount of 0.5% HPMC by oral administration.
NPYY5 agonist ([cPP^1-7, NPY^19-23, Ala^31, Aib^32, Gln^34]-hPancreatic Polypeptide: Tocris Coockson) was dissolved in a physiological salt solution to be 0.1 nmol/10 μL. 0.1 nmol of the solution was infused via a guide cannula in a head of the rat one hour after giving a compound of the present invention. Immediately after the infusion, the amount of the remaining food was measured.
The amount of the remaining food was measured 1, 2 or 4 hour(s) after the infusion of an agonist and the food intake for this period was calculated. An antifeeding rate of a compound of the present invention against the food intake of rats in a control group was calculated.

[1] = food intake 1 h after infusion vs control group, read-out: Antifeeding activity (%) 1 h
[2] = food intake 2 h after infusion vs control group, read-out: Antifeeding activity (%) 2 h
[3] = food intake 4 h after infusion vs control group, read-out: Antifeeding activity (%) 4 h

SMILES | inhibition in vivo at 30 mg/kg [1] [%] | inhibition in vivo at 30 mg/kg [2] [%] | inhibition in vivo at 30 mg/kg [3] [%]
CCS(=O)(=O)N[C@H]1CC[C@H](C(=O)Nc2ccc(OCC(F)(F)F)nc2)CC1 [Ia-2] | 98 | 77 | 56
CCS(=O)(=O)NCCCCC(=O)Nc1ccc(OCC(F)(F)F)nc1 [Ia-3] | 85 | 78 | 74
CCS(=O)(=O)N[C@H]1CC[C@H](C(=O)Nc2ccc(N3C[C@@H](C)O[C@@H](C)C3)cc2)CC1 [Ib-1] | 90 | 95 | 92
CCn1c2ccccc2c2cc(NC(=O)[C@H]3CC[C@H](NS(=O)(=O)CC)CC3)ccc21 [Id-1] | 5 | 37 | 49
CCn1c2ccccc2c2cc(NC(=O)CCCCNS(=O)(=O)CC)ccc21 [Id-2] | 100 | 100 | 100
CCS(=O)(=O)NCCCCC(=O)Nc1ccc2c(c1)c1c(n2C(C)C)CCCC1 [Id-4] | 100 | 94 | 95
CCn1c2ccccc2c2cc(NC(=O)CCNS(=O)(=O)CC(F)(F)F)ccc21 [Ig-1] | 67 | 44 | 48
CN(C)S(=O)(=O)N[C@H]1CC[C@H](C(=O)Nc2ccc(C(F)(F)F)cc2)CC1 [Ii-1] | 42 | 38 | 31
